Values of other authors as cited in paper PMC7330163 (Pharmacology Research & Perspectives, 2020).

What was measured:
[1] = test system: hepatic OATP transporters; settings: accumulates in the liver; cited from earlier work
[2] = test system: CYP3A4; settings: man; cited from earlier work

For `COc1ccccc1Oc1c(NS(=O)(=O)c2ccc(C(C)(C)C)cc2)nc(-c2ncccn2)nc1OCCO` [bosentan], the “substrate of OATP” value [1] is listed as “is an OATP substrate” and the “CYP3A4 induction in clinical use” value [2] is listed as “moderate CYP3A4 inducer”.
